Data as given in US6346282B1, “Neuroprotective composition for the prevention and/or treatment of nervous and behavioural alterations due to anxiety states or depression, comprising acetyl-L-carnitine and hypericin” (priority 1998, dated 2002).

Tests used:
rats and mice = assay: Toxicology tests, single-dose oral administration; format: in vivo; settings: 2 g/kg carnitine mixture, 2 g/kg acetyl L-carnitine, 1 g/kg Hypericum extract (approx. 0.3% hypericin), 3 mg/kg hypericin, each alone
[1] = test system: swimming-induced immobility in mice; assay: Immobility induced by forced swimming; format: in vivo; settings: last four minutes of six, oral, two administrations six hours and three hours before
Excerpt: One of the tests regarded as being most significant for assessing the activity of antidepressant substances is the forced swimming test in the mouse, which measures the changes in swimming-induced immobility which the various test substances produce (Borsini, F., Psychopharmacology, 94, 147, 1988). In these tests, the technique described by Persolt was adopted (Persolt, R. D., Eur. J. Pharmacol., 57, 201, 1979—Persolt, R. D., Arch. Int. Pharmacology, 229, 327, 1977) using ten […] per group. The animals were placed in beakers measuring 14 cm in height and approximately 12 cm in internal diameter which were filled with water (20-22° C.) up to 7.5 cm from the rim and then left there for six minutes. The duration of the immobility was calculated during the last four minutes. The mice were considered immobile when they performed only the movements necessary to keep themselves afloat on the water.
The substances tested were administered orally in two administrations six hours and three hours prior to the start of the experiment.

[2] = test system: cerebral (cortex) concentrations of serotonin (5-HT) and hydroxy-indole-acetic acid (5-HIAA); assay: Protective action against abnormal brain serotonin concentrations induced by fenfluramine; format: in vivo, (Sprague-Dawley) male rats; settings: CC 400 mg/kg, AC 400 mg/kg, HE 300 mg/kg, HYP 1 mg/kg, two weeks after treatment
Excerpt: Since changes in concentration of cerebral biogenic amines regulate both excitatory and depressive emotional behaviour states, it was decided, in view of the above-mentioned action of hypericin and Hypericum extracts at catecholamine and particularly serotoninergic receptor level and on the reuptake of serotonin itself, to evaluate changes in cerebral concentrations of serotonin after treatment with Hypericum extracts, hypericin, carnitine mixture or acetyl L-carnitine, alone or in various combinations, in conjunction with treatment with a substance such as fenfluramine, the neurotoxicity of which manifests itself also through a reduction in brain serotonin concentrations. It is well known, in fact, that fenfluramine [N-ethyl-α-methyl-m-(trifluoro-methyl)phenethylamine] exerts a neurotoxic action on the brain, which is identifiable both histologically on the basis of derangement of the cerebral serotoninergic structures and through depletion of serotonin concentrations in the brain.
The tests were conducted using a group of (Sprague-Dawley) male rats which were administered fenfluramine orally at the dose of 5 mg/kg twice daily for 5 days consecutively, either alone or at the same time, and for the same period, as a carnitine mixture (400 mg/kg) (consisting in a combination of L-carnitine+acetyl L-carnitine+propionyl L-carnitine+isovaleryl L-carnitine present in the same weight ratio to one another), or acetyl L-carnitine (400 mg/kg), or Hypericum extract (with a 0.3% hypericin content−300 mg/kg), or hypericin (1 mg/kg), or various combinations of these products at the same doses.
Two weeks after treatment, the animals were sacrificed and the cerebral cortex isolated and subjected to measurement of the cerebral content both of serotonin (5-HT) and of hydroxy-indole-acetic acid (5-HIAA) according to the method described by Wise (Wise, C. D., Anal. Biochem., 18, 94, 1967) and modified by Ricaurte (Ricaurte, G. A., J. Pharmacol. Exptl. Ther., 261, 616, 1992).

[3] = test system: mice descending from platform; assay: Platform Test in mice; format: in vivo; settings: ten animals per group, carnitine mixture or acetyl L-carnitine 400 mg/kg, Hypericum extract 300 mg/kg, hypericin 1 mg/kg; for % of mice descending from 5 cm: platform 5 cm from the ground; for % of mice descending from 9 cm: platform 9 cm from the ground
Experimental: Ten animals were used per group and the percentage of animals that managed to descend from the platform was calculated. […] It was modified even more by the administration of a combination of these products plus the carnitine mixture (L-carnitine+acetyl L-carnitine+propionyl L-carnitine+isovaleryl L-carnitine present in the same weight ratio to one another, making a total dose of 400 mg/kg) or acetyl L-carnitine 400 mg/kg, neither of which modifies the animals' behaviour when administered alone.

[4] = test system: motor exploration activity in the mouse; assay: Exploratory activity in mice (Hole Board Test); format: in vivo
Experimental: This reduction is not related to sedation caused by the drug in the animal and can be offset using anxiolytic agents.
Using the technique described by Boissier (Boissier J. R., Physiol. Behav., 2. 447. 1967), tests (Hole Board Test) were conducted in order in a group of mice to ascertain whether the reduction in motor exploration activity induced in the animals by low-dose amphetamine (1 mg/kg i.p.) could be corrected by the oral administration of a carnitine mixture (consisting of a combination of L-carnitine+acetyl L-carnitine+propionyl L-carnitine+isovaleryl L carnitine in the same weight ratio to one another), or of acetyl L-carnitine, or Hypericum extract, or hypericin, or various combinations of these products.

[5] = test system: aggression of isolated male mice; assay: Isolation-induced aggression test; format: in vivo; settings: treated eight hours and half an hour before test, observation 180 seconds, carnitine mixture or acetyl L-carnitine 400 mg/kg, Hypericum extract 300 mg/kg, hypericin 1 mg/kg
Excerpt: This method consists in making the mice aggressive by keeping them isolated for twenty-one days in a cage and in assessing, after treatment, the latency time needed to trigger the aggression of the isolated animal when another animal is put in the cage with it. Only animals with latency times of less than 10 seconds before attacking were included in the tests, and the time of attack was taken as the time the isolated animal bit or tried to bite the other animal introduced into the cage.
The observation time was 180 seconds and the experiment was started 30 minutes after administration of the products tested. All isolated animals were treated, both eight hours and half an hour before the test, with carnitine mixture (consisting of a combination of L-carnitine+acetyl L-carnitine+propionyl L-carnitine+isovaleryl L-carnitine in an equiponderal ratio to one another) (400 mg/kg), or with acetyl L-carnitine (400 mg/kg) or with Hypericum extract (300 mg/kg) or with hypericin (1 mg/kg), or with various combinations of these products.

[6] = product alone, oral, 5 days, FE 5 mg/kg twice daily
[7] = together with fenfluramine (FE) 5 mg/kg oral twice daily for 5 days
[8] = oral treatment together with Amphetamine 1 mg/kg i.p., 30 minutes after amphetamine, CC 400 mg/kg, AC 400 mg/kg, HE 300 mg/kg, HYP 1 mg/kg

Structure (SMILES) | toxic effects or mortality (rats and mice) | Immobility time [1] | Cerebral (cortex) concentrations 5-HIAA [2, 6] | Cerebral (cortex) concentrations 5-HT [2, 6] | Cerebral (cortex) concentrations 5-HIAA [2, 7] | Cerebral (cortex) concentrations 5-HT [2, 7] | % of mice descending from 5 cm [3] | % of mice descending from 9 cm [3] | Motor exploration activity, variations compared to controls [4, 8] | Latency time of attack [5] | Motor exploration activity, variations compared to controls ([4]; Amphetamine 1 mg/kg i.p. alone, 30 minutes after administration) | Motor exploration activity, variations compared to controls ([4]; Amphetamine 5 mg/kg i.p. alone, 30 minutes after administration)
Cc1cc(O)c2c(=O)c3c(O)cc(O)c4c5c(O)cc(O)c6c(=O)c7c(O)cc(C)c8c1c2c(c34)c(c78)c65 [Hypericin, 1,3,4,6,8,13-hexahydroxy-10,11-dimethylphenanthro[1,10,9,8-opqra]perylene-7,14-dione] | lack of toxic effects or mortality | 195 ± 5 | 0.30 ± 0.030 ng/mg tissue | 0.36 ± 0.019 ng/mg tissue | 0.25 ± 0.018 ng/mg tissue | 0.28 ± 0.020 ng/mg tissue | 90% | 30% | −5 | 100 ± 9 s | – | –
CC(N)Cc1ccccc1 (stereo not drawn) [Amphetamine, amphetamine] | – | – | – | – | – | – | – | – | – | – | −45 | +55
CCNC(C)Cc1cccc(C(F)(F)F)c1 (stereo not drawn) [FE, N-ethyl-α-methyl-m-(trifluoro-methyl)phenethylamine] | – | – | 0.14 ± 0.011 ng/mg tissue | 0.17 ± 0.010 ng/mg tissue | – | – | – | – | – | – | – | –
CC(=O)O[C@H](CC(=O)[O-])C[N+](C)(C)C [Acetyl L-carnitine, acetyl L-carnitine] | lack of toxic effects or mortality | 204 ± 8 | 0.28 ± 0.012 ng/mg tissue | 0.35 ± 0.020 ng/mg tissue | 0.15 ± 0.019 ng/mg tissue | 0.18 ± 0.011 ng/mg tissue | 70% | 0% | −48 | 14 ± 3 s | – | –
